# From US20260184669A1, “LIPID COMPOUND AND COMPOSITION FOR DELIVERY OF ACTIVE SUBSTANCE” (KOREA RESEARCH INSTIUTE OF BIOSCIENCE AND BIOTECHNOLOGY, priority 2022, published 2026)
# Experiment: Stability of mRNA-LNPs according to storage temperature and duration
# Format: physicochemical
# Conditions: for Normalized EE % D-7 / PDI D-7 / Size (nm) D-7: day 7; for Normalized EE % D-30 / PDI D-30 / Size (nm) D-30: day 30
# Protocol: Stability of fLuc mRNA-LNPs produced using various ionizable lipids according to the method of Example 27, was assessed by storing the LNPs at 4° C. and 25° C. At 1, 7, and 30 days post-manufacture, the size, PDI, and encapsulation efficiency (EE) of each mRNA-LNPs samples were measured using the methods described in Experimental Examples 2 and 3.
# [1] = fLuc mRNA-LNP stored at 4° C., day 1
# [2] = fLuc mRNA-LNP stored at 25° C., day 1
compound,measurement,setting,value
"CCCCC/C=C\C/C=C\CCCCCCCCC(CCCCCCCC/C=C\C/C=C\CCCCC)OC(=O)CCCN(C)C [MC3, DLin-MC3-DMA, reference compound]",Normalized EE % D-1,[1],95.0%
same,Size (nm) D-1,[1],92.8 nm
same,Normalized EE % D-7,fLuc mRNA-LNP stored at 4° C.,94.0%
same,PDI D-7,fLuc mRNA-LNP stored at 4° C.,0.060
same,Size (nm) D-7,fLuc mRNA-LNP stored at 4° C.,128.7 nm
same,Normalized EE % D-30,fLuc mRNA-LNP stored at 4° C.,90.4%
same,PDI D-30,fLuc mRNA-LNP stored at 4° C.,0.142
same,Size (nm) D-30,fLuc mRNA-LNP stored at 4° C.,125.6 nm
same,Normalized EE % D-1,[2],95.0%
same,PDI D-1,[2],0.174
same,Size (nm) D-1,[2],92.8 nm
same,Normalized EE % D-7,fLuc mRNA-LNP stored at 25° C.,90.8%
same,PDI D-7,fLuc mRNA-LNP stored at 25° C.,0.110
same,Size (nm) D-7,fLuc mRNA-LNP stored at 25° C.,123.0 nm
same,Normalized EE % D-30,fLuc mRNA-LNP stored at 25° C.,88.3%
same,PDI D-30,fLuc mRNA-LNP stored at 25° C.,0.123
same,Size (nm) D-30,fLuc mRNA-LNP stored at 25° C.,119.3 nm
